Measurements reported in patent US20090105316A1, “Biphenyl Thiazole Carboxamides” (Bayer CropScience AG, priority 2004, published 2009).

Assay: Log P determination by HPLC on a reversed-phase column (EEC Directive 79/831, Annex V.A8)
Type: physicochemical
Conditions: reversed-phase HPLC column (C 18); pH 2.3
Procedure: The determination of the Log P values occurred according to EEC Directive 79/831, Annex V.A8 using HPLC (High Performance Liquid Chromatography) on a reversed-phase column (C 18). Temperature: 43° C. Eluents for determination in the acidic range (pH 2.3): 0.1% aqueous phosphoric acid, acetonitrile; linear gradient of 10% acetonitrile to 90% acetonitrile. Calibration took place using unbranched alkane-2-ones (with 3 to 16 carbon atoms) with known Log P values (the Log P values were determined on the basis of the retention times by way of linear interpolation between two consecutive alkanones).

| chromatographic logP | SMILES |
| --- | --- |
| 3.98 | Cc1ccc(-c2cc(C(F)(F)F)ccc2N)cc1 [4′-methyl-5-(trifluoromethyl)biphenyl-2-amine] |
| 4.48 | Cc1ccc(-c2cc(C(F)(F)F)ccc2NC(=O)c2sc(C)nc2C(F)(F)F)cc1 [Compound 1.15, 2-methyl-N-[4′-methyl-5-(trifluoromethyl)biphenyl-2-yl]-4-(trifluoromethyl)-1,3-thiazole-5-carboxamide] |
